Tests used:
[1] = system: β-actin, α-actinin, and MLC2; assay: Western blot with semi-quantitative densitometry of cytoskeletal proteins; assay type: cell-based, human; conditions: 3-D fibrin gel
From the text: Tractional forces exerted at cell-matrix adhesion sites require the activation of an actinomyosin motor complex whose assembly is tightly linked to actin cytoskeleton organization, non-muscle myosin II isoform expression, and the rigidity of the surrounding substratum (Meshel et al. 2005. Nat. Cell Biol., 7(2): 157-164; Engler, supra; and Even-Ram, supra; Yoneda et al. 2007. Mol. Cell. Biol., 19(1): 66-75). β-actin, α-actinin, myosin light chain-2 (MLC2), and non-muscle myosin IIA and IIB isoform (NMMIIA and NMMIIB, respectively) protein levels were monitored in 3-D embedded endothelial cells to determine the effect of Fn matrix inhibition on the expression of gene products critical to the generation of tractional forces. Endothelial cells were cultured in 3-D fibrin gels for 2 days with either the FUD peptide or the control Del29 peptide. Levels of β-actin, α-actinin, NMMIIA, NMMIIB, and MLC2 were measured by Western blot, with ERK1/2 serving as the loading control. As assessed by semi-quantitative densitometry, the levels of β-actin, actinin and MLC2 were 58±7% (n=5; mean±1 SD), 62% (n=2), and 60±12% (n=3; mean±1 SD) of control, respectively.

human endothelial cells = assay: Fn matrix assembly by endothelial cells in 3-D fibrin gel, confocal laser microscopy; assay type: cell-based
Experimental: Endothelial cells were isolated from human umbilical cord veins by collagenase digestion and cultured in Medium 199 (Gibco) containing 20% human serum, 50 μg/ml endothelial cell growth supplement (BD Biosciences), 100 U/ml penicillin, and 100 μg/ml streptomycin (Hiraoka et al. 1998. Cell, 95(3): 365-377). For 2-D/3-D culture, endothelial cell monolayers (no later than third passage) were suspended by mild trypsinization and dispersed within or plated atop fibrin (3 mg/ml) or collagen (2.2 mg/ml) gels (prepared as described in Hiraoka, supra, and Hotary et al. 2003. Cell, 114(1): 33-45), and stimulated with a cocktail of growth factors including 100 ng/ml human vascular endothelial growth factor (Genentech), 50 ng/ml human hepatocyte growth factor (Genentech), 10 ng/ml human TGFα (Biosource), 0.5 ng/ml TGFβ1 (R and D Systems), and 100 μg/ml heparin (Sigma). In selected experiments, endothelial cell spheroids were prepared and suspended in 3-D fibrin gels.
The effect of Fn matrix assembly, or lack thereof, on endothelial cell function during neovascularization was assessed. Human serum was depleted of Fn by gelatin-sepharose affinity chromatography (Amersham) and supplemented with either 20 μg/ml of human plasma Fn (Sigma) or FITC-labeled Fn. […]
(Chernousov et al. 1991. J. Biol. Chem., 266(17): 10851-10858; Tomasini-Johansson et al. 2001. J. Biol. Chem., 276(26): 23430-23439; Mao and Schwarzbauer. 2005. Matrix Biol., 24(6): 389-399; and Tomasini-Johansson et al. 2006. Matrix Biol., 25(5): 282-293). […] Cell number in 3-D cultures was determined by hemacytometry after dissolving gels with 2 mg/ml bacterial collagenase (Worthington) while the number of patent tubules was determined in randomly selected cross-sections. Fn matrix assembly and cell morphology were monitored by confocal laser microscopy. To examine cell migration, endothelial cells were embedded in a 100 μl fibrin gel for 2 hours, then placed within a 500 μl gel for 8 days in the presence of Del29, FUD, control IgG, or L8, after which migration from the inner gel was assessed. […]

[2] = system: chorioallantoic membrane (CAM) of live chicks; assay: Chick chorioallantoic membrane (CAM) angiogenesis into 3-D matrices; assay type: in vivo; conditions: 3 days, VEGF and HGF, versus Del29 control
Experimental: The functional role for fibrillogenesis in tissue sites undergoing active angiogenesis in vivo was assessed. To this end, 3-D composite gels of fibrin and type I collagen were placed atop the chorioallantoic membrane (CAM) of live chicks, and angiogenesis was initiated in the presence of FUD or the Del29 peptide control. In particular, 3-D matrices of type I collagen or a type I collagen/fibrin composite matrix were cast in transwell tissue culture inserts (24 well size) perforated with a 25 gauge needle. A 30 μl Matrigel (BD Biosciences) reservoir was placed atop the matrix containing 200 ng VEGF, 100 ng HGF, and either Del29 or FUD. The entire apparatus was placed atop the dropped CAM of 10-11 day old fertile chicken eggs. Following incubation in a humidified incubator at 37° for 3 days, the matrices were harvested. Vascular ingrowth was monitored by light microscopy following H&E staining. In some experiments, FITC-Fn (McKeown-Longo and Mosher. 1985. J. Cell. Biol., 100(2): 364-74) was supplemented in the matrices during the culture period, and Fn fibrillogenesis within the gels was monitored by confocal laser microscopy.

Compound | level of actinin ([1]; 2 days, control Del29 peptide, n=2) | level of MLC2 ([1]; 2 days, control Del29 peptide, n=3, mean±1 SD) | level of β-actin ([1]; 2 days, control Del29 peptide, n=5, mean±1 SD) | levels of β-actin, α-actinin, and MLC2 ([1]; growth factor-stimulated) | Fn matrix assembly (Fn polymerization) (human endothelial cells; growth factor cocktail, FUD or Del29 250 nM, L8 or 9D2 100 μg/ml, 70 kDa Fn fragment 75 μg/ml) | Fn matrix assembly in ECM construct [2] | neovessel formation (vascular ingrowth) [2] | pericellular Fn matrix assembly (human endothelial cells; 2 days, 50 μM blebbistatin)
FUD: 49-residue functional upstream domain of Streptococcus pyogenes F1 adhesion protein, SEQ ID NO: 10; fibronectin fibril assembly inhibitor (KDQSPLAGESGETEYITEVYGNQQNPVDIDKKLPNETGFSGNMVETEDT; Streptococcus pyogenes; Functional Upstream Domain (FUD) of F1 adhesion protein) | 62 % of control | 60±12 % of control | 58±7 % of control | markedly reduced | attenuated | almost completely inhibited | ablated | –
Cc1ccc2c(c1)C(=O)C1(O)CCN(c3ccccc3)C1=N2 (centres unmarked) [blebbistatin] | – | – | – | – | – | – | – | failed to assemble

— patent US8697081B2, “Method of modulating neovascularization” (The Regents of the University of Michigan, priority 2008, dated 2014)
